Results: patent US5185436A, “Esters of normal butyric acid and their use as pharmaceuticals” (priority 1990, dated 1993)
Like-named read-outs stand apart in the source and are kept apart here.

What was measured:
[1] = tested on: rat; assay: Lethality in the rat; assay type: in vivo; details: administration of 1.12 g/kg to the rat
Description: (§1) The toxicities which are acute with the SWISS mouse and chronic with the albino rat are determined according to the usual standardized protocols.

[2] = Acute toxicity, SWISS mouse (median lethal dose); details: in vivo, read-out: Median lethan dose
Description: as §1

[3] = Solubility in water; assay type: physicochemical
[4] = tested on: TG 180 strain; assay: In vivo antitumoral test with the mouse, first experiment; parameters: species or system SWISS mouse; details: for number of survivors (tumor +) / number of survivors (tumor -) / number of animals with tumors: 15 mice per batch; for number of survivors (tumor +) / number of survivors (tumor -): compounds I to V alternately with CP and interferon; for number of animals with tumors: compounds I to V alternately with CP and interferon (0.5 ml of 8 mmolar solution), three weeks; for antitumoral therapeutic efficiency: with respect to reference batches No. 1, 2, 3 and 4, in words
Description: (3) In vivo antitumoral tests with the mouse.
The studies on the antitumoral properties have been carried out with the mouse according the CHANY and CERRUTI protocol (Int. J. Cancer, 1982, 30, 489) on the hereabove compounds I to V.
In order to obtain a tumor or tumors with mice, one uses the TG 180 strain (injection via the i.p. route of 10^6 cells for a male mouse of 25 g and of 0.1 ml of a solution of Corynbacterium Parvum Merieux (CP)).
This experiment bears on 135 SWISS mice devided into 9 batches of 15 mice each. After injection on day D0 of the TG 180 and CP cells, one proceeds in the following manner:
The reference batch No. 1 is treated every day with an injection of placebo.
The reference batch No. 2 is treated every day with an injection of CP (0.1 ml).
The reference batch No. 3 is treated every day with an injection of interferon EAT-113, 0.5 ml.
The reference batch No. 4 is treated every day alternately with CP and with interferon EAT-113, with the same doses as hereabove.
The experimental batches are treated, alternately on day D+1 with the compound according to the invention (0.5 ml of an 8 mmolar solution of a compound I to V), on day D+2 with interferon EAT-113, on day D+3 with CP, and this for three weeks.
The number of survivors is noted, as well as the presence or not of a tumor (tumor+ or tumor-) in the survivors five weeks after day D0.

[5] = tested on: TG 180 strain; assay: as above; parameters: species or system SWISS mouse; details: 15 mice per batch; compounds I to V alternately with CP and interferon
[6] = tested on: Herpes hominis type II virus; details: in vivo, with interferon EAT-113; in words
[7] = tested on: neoplasic mammary cells (strain NCF 410); assay: In vitro action on neoplasic mammary cells; assay type: cell-based; details: association with interferon EAT-113; in words
[8] = tested on: cells infected by the murine AIDS TR-26 virus; assay: In vitro action on cells infected by murine AIDS virus; assay type: cell-based; details: in words
[9] = tested on: TG 180 strain; assay: In vivo antitumoral test with the mouse, second experiment (dose effect)
[10] = Solubilizing of the products for the in vivo antitumoral test; assay type: physicochemical; details: explanation for the small number of survivors; in words
[11] = tested on: rat; details: Merck Index 10th edition; cited from earlier work
[12] = tested on: man; details: massive dose; Brazier et al; in words; cited from earlier work
[13] = tested on: TG 180 strain; details: mouse; cited from earlier work
[14] = rabbit, i.v. 0.12 g/kg, t=60 min; cited from earlier work
[15] = tested on: fibroblasts; details: in words; cited from earlier work
[16] = tested on: herpes virus; details: in words; cited from earlier work

SMILES	LD50 ([2]; ip) [mg/kg]	LD50 ([2]; oral route) [mg/kg]	number of survivors (tumor +) [4]	number of survivors (tumor -) [4]	number of animals with tumors [4]	number of survivors after 6 weeks [5]	also measured
CCCC(=O)O[C@@H]1[C@H]2OC(C)(C)O[C@H]2O[C@@H]1[C@H]1COC(C)(C)O1 [Compound I, O-butanoyl-3-di-O-isopropylidene 1,2: 5,6 α-D-glucofuranose]	1750 ± 390	> 8000	3	7	9	10	lethality [1]: does not cause any lethality; solubility in water ([3]; in words): slightly soluble in water; antitumoral therapeutic efficiency [4]: very good antitumoral therapeutic efficiency
CCCC(=O)O[C@@H]1[C@H]2OC(C)(C)O[C@H]2O[C@@H]1[C@H](O)CO [Compound II]	4200 ± 400	> 8000	0	9	10	9	potentialization of the action of interferon EAT-113 [6]: potentialization of the action of interferon EAT-113 on the Herpes hominis type II virus; solubility ([3]; water, room temperature): > 100 mg/mL; in vitro action compared with arginine butyrate and interferon EAT-113 [7]: stronger than the association of arginine butyrate and interferon EAT-113; action in vitro compared with arginine butyrate [8]: stronger action in vitro on the cells infected by the murine AIDS TR-26 virus than the arginine butyrate; antitumoral therapeutic efficiency [4]: very good antitumoral therapeutic efficiency; survival after 100 days ([9]; administered alternately with CP and interferon, whatever the concentration between 0.25 and 50 mmol/l): 30 mice amongst 45; number of surviving mice after 100 days ([9]; alternately with CP, interferon omitted, average, 0.5 to 50 millimoles/l): 20 mice amongst 45; therapeutic results of the association with CP alone compared with interferon, CP plus arginine butyrate ([9]; compound II plus CP, no interferon, in words): as good as the association of interferon with CP plus arginine butyrate; dose sufficient for obtaining the maximum therapeutic effect ([9]; mouse): ≤ 0.44 mg of potential n-butyric acid per kilogramme of mouse
CCCC(=O)OC[C@@H](O)[C@H]1O[C@@H]2OC(C)(C)O[C@@H]2[C@H]1O [III, O-butanoyl-6-O-isopropylidene-1,2α-D-glucofuranose]	3000 ± 350	> 8000	3	8	7	11	antitumoral therapeutic efficiency [4]: very good antitumoral therapeutic efficiency
CCCC(=O)OC[C@@H](OC(=O)CCC)[C@H]1O[C@@H]2OC(C)(C)O[C@@H]2[C@H]1OC(=O)CCC [IV, tri-O-butanoyl 3,5,6-O-isopropylidene-1,2 α-D-glucofuranose]	> 8000	> 8000	0	3	13	3	solubilizing [10]: difficulties for solubilizing these products
CCCC(=O)OCC(O)CO (centres unmarked) [IX, O-n-butanoyl-1, propane diol-2,3]	2250 ± 230	> 8000					
CCCC(=O)OC[C@H]1O[C@@H]2OC(C)(C)O[C@@H]2[C@H]2OC(C)(C)O[C@H]21 [V, O-n-butanoyl-6 di-O-isopropylidene-1,2:3,4α-D-galactopyranose]	2500 ± 400	> 8000	0	3	12	3	solubilizing [10]: difficulties for solubilizing these products
CCCC(=O)OC[C@H]1OC(OC(=O)CCC)[C@H](OC(=O)CCC)[C@@H](OC(=O)CCC)[C@H]1OC(=O)CCC (stereo partly drawn) [VI, penta O-n-butanoyl-1,2,3,4,6 D-galactopyranose]	> 8000	> 8000					
CCCC(=O)OC[C@H]1OC(OC(=O)CCC)[C@H](OC(=O)CCC)[C@@H](OC(=O)CCC)[C@@H]1OC(=O)CCC (stereo partly drawn) [VII, penta- O-n-butanoyl-1,2,3,4,6 D-glucopyranose]	> 8000	> 8000					
CCCC(=O)OCC1COC(C)(C)O1 (centres unmarked) [VIII, O-n-butanoyl-1-isopropylidene-2,3-glyceryl]	5400 ± 300	> 8000					
CCCCCCCCCCCCCCCC(=O)OCC(COC(=O)CCC)OC(=O)CCCCCCCCCCCCCCC (centres unmarked) [X, O-butanoyl-3-di-O-palmitoyl-1,2 glyceryl]	> 2000	> 6000					
CCCCCCCCCCCCCCCC(=O)OCC(COC(=O)CCC)OC(=O)CCC (centres unmarked) [XI, di-O-butanoyl-2,3 O-palmitoyl-1-glyceryl]	> 8000	> 8000					
CC(C)=O [acetone]							median lethal dose p.o. [11]: 10.7 mL/kg
CCCC(=O)O [arginine n-butyrate]							side effects in man [12]: side effects in man, of the hyperammoniemy type with a reduction of the insulin secretion and disturbances of the urea cycle and of glucose metabolism; optimal dose advocated [13]: 14 mg of butyric acid; n-butyric acid present in serum [14]: 0 mmol/L; surviving mice after 100 days ([9]; association of CP plus arginine butyrate without interferon): 8 mice amongst 45; therapeutic efficiency ([9]; association of CP plus arginine butyrate without interferon, in words): low therapeutic efficiency
CCCC(=O)[O-].[Na+] [sodium n-butyrate]							inhibiting actions on the growth of fibroblasts [15]: interesting inhibiting actions on the growth of fibroblasts; antiviral actions [16]: antiviral actions of sodium butyrate have also been characterized for the herpes virus
